This experiment deals with T1, human GPR40 (Homo sapiens, UniProt O14842).
T1 construct: expressed in transfected cells; host or cells: CHO cells
T1 sequence (O14842 whole entry): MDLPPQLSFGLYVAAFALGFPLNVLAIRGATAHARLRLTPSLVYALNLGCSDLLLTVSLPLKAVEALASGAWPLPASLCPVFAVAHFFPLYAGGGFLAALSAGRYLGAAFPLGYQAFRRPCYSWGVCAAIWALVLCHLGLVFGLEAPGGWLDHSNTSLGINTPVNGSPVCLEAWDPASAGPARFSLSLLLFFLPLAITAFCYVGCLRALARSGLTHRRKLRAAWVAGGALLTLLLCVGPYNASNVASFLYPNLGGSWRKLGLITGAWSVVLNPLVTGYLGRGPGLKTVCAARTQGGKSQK
Description: Cell-based aequorin assay. Conditions: CHO cells stably transfected with GPR40 and aequorin; 0.01% HSA; aequorin luminescence; read-out: Relative EC50. How it is done: Cell-based aequorin assays were employed to characterize the modulatory activity of compounds on the GPR40 signaling pathway. In an exemplary assay, CHO cells were stably transfected with both GPR40 and Aequorin (Euroscreen). Cells were detached from the tissue culture dish with 2 mL of trypsin (0.25% (w/v)). Trypsinization was halted with 28 mL of Hanks Buffered Salt Solution containing 20 mM Hepes (H/HBSS) and 0.01% fatty acid-free human serum albumin (HSA). Coelantrazine is added to 1 ug/mL, and the cells were incubated for 2 hours at room temperature. Compounds were dissolved in DMSO for preparation of 10 mM stock solutions. Compounds were diluted in H/HBSS containing 0.01% HSA. Serial dilutions of the test compounds were prepared to determine dose response.
Aequorin luminescence measurements were made using an EG&G Berthold 96-well luminometer, and the response was measured over a 20 second interval after cells and compounds were mixed. The maximum relative light units was plotted to determine dose response. The EC50 (effective concentration to reach 50% maximal response) was determined from the dose response plot.
Table 1 presents representative data (EC50 values) obtained for exemplary compounds of the invention for the relative activation of human GPR40. […]
The EC50 is the concentration at which the effect is half-maximal. Consider `CC#C[C@@H](CC(=O)O)c1ccc(O[C@H]2CCc3cc(Br)ccc32)cc1` [Example 45, (S)-3-(4-((S)-5-bromo-2,3-dihydro-1H-inden-1-yloxy)phenyl)hex-4-ynoic acid], for which the concentration giving a half-maximal response (EC50) is 10 to 100 nM. For the compound `CC#C[C@@H](CC(=O)O)c1ccc(OC2CCc3ccccc32)cc1` (stereo partly drawn) [Example 46, (3S)-3-(4-(2,3-Dihydro-1H-inden-1-yloxy)phenyl)hex-4-ynoic acid], the EC50 lay in the range of 10 to 100 nM. In the case of `O=C(O)CC(c1ccc(OC2CCc3cc(Br)ccc32)cc1)n1cccn1` (centres unmarked) [Example 47, 3-(4-(5-Bromo-2,3-dihydro-1H-inden-1-yloxy)phenyl)-3-(1H-pyrazol-1-yl)propanoic acid] it was 100 to 1000 nM; in that of `CC#C[C@@H](CC(=O)O)c1ccc(OC2CCc3cc(-c4cccc(OC(F)(F)F)c4)ccc32)cc1` (stereo partly drawn) [Example 50, (3S)-3-(4-(5-(3-(Trifluoromethoxy)phenyl)-2,3-dihydro-1H-inden-1-yloxy)phenyl)hex-4-ynoic acid], 10 to 100 nM; in that of `Cc1cnc(C(CC(=O)O)c2ccc(OC3Cc4ccccc4C3)cc2)o1` (centres unmarked) [Example 51, 3-(4-(2,3-Dihydro-1H-inden-2-yloxy)phenyl)-3-(5-methyloxazol-2-yl)propanoic acid], 100 to 1000 nM. The same measure for `CC#C[C@@H](CC(=O)O)c1ccc(OC2CCc3cc(C#N)ccc32)cc1` (stereo partly drawn) [Example 54, (3S)-3-(4-(5-Cyano-2,3-dihydro-1H-inden-1-yloxy)phenyl)hex-4-ynoic acid]: 10 to 100 nM; for `CC#C[C@@H](CC(=O)O)c1ccc(OC2CCc3cc(-c4cc(OC)ccc4F)ccc32)cc1` (stereo partly drawn) [Example 55, (3S)-3-(4-(5-(2-Fluoro-5-methoxyphenyl)-2,3-dihydro-1H-inden-1-yloxy)phenyl)hex-4-ynoic acid]: 100 to 1000 nM. In the case of `COc1ccc(F)c(-c2ccc3c(c2)CCC3Oc2ccc([C@H](C=C(C)C)CC(=O)O)cc2)c1` (some centres unmarked) [Example 56] it was 1000 to 10000 nM.

In the case of `COc1ccc(F)c(-c2ccc3c(c2)CCC3Oc2ccc([C@@H](C=C(C)C)CC(=O)O)cc2)c1` (some centres unmarked) [Example 57], the EC50 lay in the range of 100 to 1000 nM. As for `Cn1ccnc1[C@@H](CC(=O)O)c1ccc(OC2CCc3cc(Cl)ccc32)cc1` (stereo partly drawn) [Example 58, (3S)-3-(4-(5-Chloro-2,3-dihydro-1H-inden-1-yloxy)phenyl)-3-(1-methyl-1H-imidazol-2-yl)propanoic acid], the EC50 lay in the range of 1000 to 10000 nM.

Turning to `CC#C[C@H](CC(=O)O)c1ccc(OC2CCc3cc(-c4cccc(OCC)c4)ccc32)cc1` (stereo partly drawn) [Example 59, (3R)-3-(4-(5-(3-Ethoxyphenyl)-2,3-dihydro-1H-inden-1-yloxy)phenyl)hex-4-ynoic acid], the half-maximal effective concentration (EC50) is > 10000 nM.

As for `CC#C[C@H](CC(=O)O)c1ccc(OC2CCc3cc(-c4ccc5c(c4)OCO5)ccc32)cc1` (stereo partly drawn) [Example 60, (3R)-3-(4-(5-(Benzo[d][1,3]dioxol-5-yl)-2,3-dihydro-1H-inden-1-yloxy)phenyl)hex-4-ynoic acid], the concentration for a half-maximal effect (EC50) was > 10000 nM.

On to `CC#C[C@H](CC(=O)O)c1ccc(OC2CCc3cc(-c4cccc(OC)c4OC)ccc32)cc1` (stereo partly drawn) [Example 61, (3R)-3-(4-(5-(2,3-Dimethoxyphenyl)-2,3-dihydro-1H-inden-1-yloxy)phenyl)hex-4-ynoic acid], for which the concentration for a half-maximal effect (EC50) was > 10000 nM. In the case of `CC#C[C@H](CC(=O)O)c1ccc(OC2CCc3cc(-c4cccc(OC)c4)ccc32)cc1` (stereo partly drawn) [Example 62, (3R)-3-(4-(5-(3-Methoxyphenyl)-2,3-dihydro-1H-inden-1-yloxy)phenyl)hex-4-ynoic acid] it was > 10000 nM.

As for `CC#C[C@H](CC(=O)O)c1ccc(OC2CCc3cc(-c4cccc(OC(F)(F)F)c4)ccc32)cc1` (stereo partly drawn) [Example 63, (3R)-3-(4-(5-(3-(trifluoromethoxy)phenyl)-2,3-dihydro-1H-inden-1-yloxy)phenyl)hex-4-ynoic acid], the concentration for a half-maximal effect (EC50) was > 10000 nM. `CC#C[C@H](CC(=O)O)c1ccc(OC2CCc3cc(-c4c(C)cc(C)cc4C)ccc32)cc1` (stereo partly drawn) [Example 64, (3R)-3-(4-(5-Mesityl-2,3-dihydro-1H-inden-1-yloxy)phenyl)hex-4-ynoic acid]: the concentration for a half-maximal effect (EC50) was > 10000 nM. With `CC#C[C@H](CC(=O)O)c1ccc(OC2CCc3cc(-c4ccccc4OCC)ccc32)cc1` (stereo partly drawn) [Example 65, (3R)-3-(4-(5-(2-Ethoxyphenyl)-2,3-dihydro-1H-inden-1-yloxy)phenyl)hex-4-ynoic acid], the EC50 was > 10000 nM.

`CC#C[C@H](CC(=O)O)c1ccc(OC2CCc3cc(-c4cc(OCC)ccc4F)ccc32)cc1` (stereo partly drawn) [Example 66, (3R)-3-(4-(5-(5-Ethoxy-2-fluorophenyl)-2,3-dihydro-1H-inden-1-yloxy)phenyl)hex-4-ynoic acid]: the EC50 was > 10000 nM. In the case of `CC#C[C@H](CC(=O)O)c1ccc(OC2CCc3cc(-c4cccc(OC)c4F)ccc32)cc1` (stereo partly drawn) [Example 67, (3R)-3-(4-(5-(2-Fluoro-3-methoxyphenyl)-2,3-dihydro-1H-inden-1-yloxy)phenyl)hex-4-ynoic acid] it was > 10000 nM. The same measure for `CC#C[C@H](CC(=O)O)c1ccc(OCC2CCCCC2)cc1` [Example 68, (R)-3-(4-(Cyclohexylmethoxy)phenyl)hex-4-ynoic acid]: 1000 to 10000 nM; for `CC#C[C@@H](CC(=O)O)c1ccc(OCCC2CCCCC2)cc1` [Example 69, (S)-3-(4-(2-cyclohexylethoxy)phenyl)hex-4-ynoic acid]: 100 to 1000 nM.

For the compound `CC#C[C@@H](CC(=O)O)c1ccc(OCCC2CCCC2)cc1` [Example 70, (S)-3-(4-(2-cyclopentylethoxy)phenyl)hex-4-ynoic acid], the EC50 was 100 to 1000 nM. The same measure for `Cn1ccnc1[C@@H](CC(=O)O)c1ccc(OCc2ccc3c(c2)C(C)(C)CCC3(C)C)cc1` [Example 71, (S)-3-(1-Methyl-1H-imidazol-2-yl)-3-[4-(5,5,8,8-tetramethyl-5,6,7,8-tetrahydro-naphthalen-2-ylmethoxy)-phenyl]-propionic acid]: 100 to 1000 nM; for `Cn1ncnc1[C@@H](CC(=O)O)c1ccc(OCc2ccc3c(c2)C(C)(C)CCC3(C)C)cc1` [Example 72, (S)-3-(2-Methyl-2H-[1,2,4]triazol-3-yl)-3-[4-(5,5,8,8-tetramethyl-5,6,7,8-tetrahydro-naphthalen-2-ylmethoxy)-phenyl]-propionic acid]: 100 to 1000 nM; for `Cn1nncc1[C@@H](CC(=O)O)c1ccc(OCc2ccc3c(c2)C(C)(C)CCC3(C)C)cc1` [Example 73, (S)-3-(3-methyl-3H-1,2,3-triazol-4-yl)-3-(4-((5,5,8,8-tetramethyl-5,6,7,8-tetrahydronaphthalen-2-yl)methoxy)phenyl)propanoic acid]: 10 to 100 nM. In the case of `Cn1cncc1[C@@H](CC(=O)O)c1ccc(OCc2ccc3c(c2)C(C)(C)CCC3(C)C)cc1` [Example 74, (S)-3-(1-methyl-1H-imidazol-5-yl)-3-(4-((5,5,8,8-tetramethyl-5,6,7,8-tetrahydronaphthalen-2-yl)methoxy)phenyl)propanoic acid] it was 100 to 1000 nM; in that of `CC1(C)CCC(C)(C)c2cc(COc3ccc([C@H](CC(=O)O)c4cnco4)cc3)ccc21` [Example 75, (S)-3-(Oxazol-5-yl)-3-(4-((5,5,8,8-tetramethyl-5,6,7,8-tetrahydronaphthalen-2-yl)methoxy)phenyl)propanoic acid], 100 to 1000 nM.

`CC1(C)CCC(C)(C)c2cc(COc3ccc([C@H](CC(=O)O)c4ccon4)cc3)ccc21` [Example 76, (S)-3-(Isoxazol-3-yl)-3-(4-((5,5,8,8-tetramethyl-5,6,7,8-tetrahydronaphthalen-2-yl)methoxy)phenyl)propanoic acid]: the half-maximal effective concentration (EC50) is 10 to 100 nM.

As for `CC1(C)CCC(C)(C)c2cc(COc3ccc([C@@H](CC(=O)O)c4ccon4)cc3)ccc21` [Example 77, (R)-3-(Isoxazol-3-yl)-3-(4-((5,5,8,8-tetramethyl-5,6,7,8-tetrahydronaphthalen-2-yl)methoxy)phenyl)propanoic acid], the concentration for a half-maximal effect (EC50) was in the range of 1000 to 10000 nM.

For `Cn1ccnc1[C@@H](CC(=O)O)c1ccc(OCc2ccc3c(c2)CCCC3)cc1` [Example 80, (S)-3-(i-Methyl-1H-imidazol-2-yl)-3-[4-(5,6,7,8-tetrahydro-naphthalen-2-ylmethoxy)-phenyl]-propionic acid], the 50% effective concentration (EC50) fell in the range of 100 to 1000 nM. On to `Cn1nnnc1[C@@H](CC(=O)O)c1ccc(OCc2ccc3c(c2)C(C)(C)CCC3(C)C)cc1` [Example 81, (S)-3-(1-Methyl-1H-tetrazol-5-yl)-3-[4-(5,5,8,8-tetramethyl-5,6,7,8-tetrahydro-naphthalen-2-ylmethoxy)-phenyl]-propionic acid], for which the EC50 lay in the range of 10 to 100 nM.

For the compound `CC1(C)CCC(C)(C)c2cc(COc3ccc([C@H](CC(=O)O)c4ncco4)cc3)ccc21` [Example 82, (S)-3-Oxazol-2-yl-3-[4-(5,5,8,8-tetramethyl-5,6,7,8-tetrahydro-naphthalen-2-ylmethoxy)-phenyl]-propionic acid], the EC50 was in the range of 10 to 100 nM.

As to `Cn1cnnc1[C@H](CC(=O)O)c1ccc(OCc2ccc3c(c2)C(C)(C)CCC3(C)C)cc1` [Example 83], the EC50 was > 10000 nM. The same measure for `Cn1cnnc1[C@@H](CC(=O)O)c1ccc(OCc2ccc3c(c2)C(C)(C)CCC3(C)C)cc1` [Example 84]: 100 to 1000 nM. In the case of `CC1(C)CCC(C)(C)c2cc(COc3ccc(C(CC(=O)O)C4=NOCC4)cc3)ccc21` (centres unmarked) [Example 85, 3-(4,5-Dihydroisoxazol-3-yl)-3-(4-((5,5,8,8-tetramethyl-5,6,7,8-tetrahydronaphthalen-2-yl)methoxy)phenyl)propanoic acid] it was 100 to 1000 nM.

For the origin of these results see patent publication US7582803B2 (Amgen Inc., priority 2005, dated 2009).
